Assay: xn = mol fraction of the nth substance listed

CCOS(=O)(=O)[O-].CC[n+]1ccn(C)c1 + O
Conditions	electrical conductivity [S/m]	viscosity [mPa·s]
283.15 K, 101 kPa, x2 = 0.1966	–	136.9
283.15 K, 101 kPa, x2 = 0.6124	–	32.65
288.15 K, 100 kPa, x1 = 0.0005131	–	1.163
288.15 K, 100 kPa, x1 = 0.0008362	–	1.177
288.15 K, 100 kPa, x1 = 0.001227	–	1.193
288.15 K, 100 kPa, x1 = 0.002025	–	1.227
288.15 K, 100 kPa, x1 = 0.002516	–	1.25
288.15 K, 100 kPa, x1 = 0.003482	–	1.292
288.15 K, 100 kPa, x1 = 0.00456	–	1.342
288.15 K, 100 kPa, x1 = 0.006613	–	1.426
288.15 K, 100 kPa, x1 = 0.008007	–	1.491
288.15 K, 100 kPa, x1 = 0.009969	–	1.577
288.15 K, 100 kPa, x1 = 0.01406	–	1.777
288.15 K, 100 kPa, x1 = 0.0162	–	1.889
293.15 K, 100 kPa, x1 = 0.0005131	–	1.012
293.15 K, 100 kPa, x1 = 0.0008362	–	1.024
293.15 K, 100 kPa, x1 = 0.002516	–	1.092
293.15 K, 100 kPa, x1 = 0.003482	–	1.129
293.15 K, 100 kPa, x1 = 0.00456	–	1.171
293.15 K, 100 kPa, x1 = 0.006613	–	1.247
293.15 K, 100 kPa, x1 = 0.008007	–	1.295
293.15 K, 100 kPa, x1 = 0.009969	–	1.365
293.15 K, 100 kPa, x1 = 0.01406	–	1.508
293.15 K, 100 kPa, x1 = 0.0162	–	1.597
293.15 K, 101 kPa, x2 = 0.0023	–	133.9
293.15 K, 101 kPa, x2 = 0.1225	–	99.1
298.15 K, 100 kPa, x1 = 0.0005131	–	0.9026
298.15 K, 100 kPa, x1 = 0.0008362	–	0.9136
298.15 K, 100 kPa, x1 = 0.001227	–	0.929
298.15 K, 100 kPa, x1 = 0.002025	–	0.9545
298.15 K, 100 kPa, x1 = 0.002516	–	0.9707
298.15 K, 100 kPa, x1 = 0.003482	–	1.004
298.15 K, 100 kPa, x1 = 0.00456	–	1.039
298.15 K, 100 kPa, x1 = 0.006613	–	1.1
298.15 K, 100 kPa, x1 = 0.008007	–	1.141
298.15 K, 100 kPa, x1 = 0.009969	–	1.201
298.15 K, 100 kPa, x1 = 0.01406	–	1.322
298.15 K, 100 kPa, x1 = 0.0162	–	1.392
298.15 K, 101 kPa, x1 = 0.003	0.74	–
298.15 K, 101 kPa, x1 = 0.047	4	–
298.15 K, 101 kPa, x2 = 0.1608	–	70
298.15 K, 101.3 kPa, x1 = 0.01871	3.26	–
298.15 K, 101.3 kPa, x2 = 0	0.398	–
298.15 K, 101.3 kPa, x2 = 0.8489	3.85	–
298.15 K, 101.3 kPa, x2 = 0.9291	4.45	–
298.15 K, 101.3 kPa, x2 = 0.9684	3.95	–
298.15 K, 101.3 kPa, x2 = 0.9752	3.66	–
303.15 K, 100 kPa, x1 = 0.0005131	–	0.8072
303.15 K, 100 kPa, x1 = 0.0008362	–	0.8175
303.15 K, 100 kPa, x1 = 0.001227	–	0.8288
303.15 K, 100 kPa, x1 = 0.002025	–	0.8498
303.15 K, 100 kPa, x1 = 0.002516	–	0.8628
303.15 K, 100 kPa, x1 = 0.003482	–	0.8878
303.15 K, 100 kPa, x1 = 0.00456	–	0.9163
303.15 K, 100 kPa, x1 = 0.006613	–	0.9752
303.15 K, 100 kPa, x1 = 0.008007	–	1.01
303.15 K, 100 kPa, x1 = 0.01406	–	1.156
308.15 K, 100 kPa, x1 = 0.0005131	–	0.7285
308.15 K, 100 kPa, x1 = 0.0008362	–	0.7368
308.15 K, 100 kPa, x1 = 0.001227	–	0.7453
308.15 K, 100 kPa, x1 = 0.002025	–	0.7648
308.15 K, 100 kPa, x1 = 0.002516	–	0.774
308.15 K, 100 kPa, x1 = 0.003482	–	0.7947
308.15 K, 100 kPa, x1 = 0.00456	–	0.8202
308.15 K, 100 kPa, x1 = 0.006613	–	0.8682
308.15 K, 100 kPa, x1 = 0.008007	–	0.8953
308.15 K, 100 kPa, x1 = 0.009969	–	0.9332
308.15 K, 100 kPa, x1 = 0.01406	–	1.02
308.15 K, 100 kPa, x1 = 0.0162	–	1.066
313.15 K, 100 kPa, x1 = 0.0005131	–	0.6616
313.15 K, 100 kPa, x1 = 0.0008362	–	0.669
313.15 K, 100 kPa, x1 = 0.001227	–	0.6761
313.15 K, 100 kPa, x1 = 0.002025	–	0.6922
313.15 K, 100 kPa, x1 = 0.002516	–	0.7008
313.15 K, 100 kPa, x1 = 0.003482	–	0.7189
313.15 K, 100 kPa, x1 = 0.00456	–	0.7368
313.15 K, 100 kPa, x1 = 0.006613	–	0.7779
313.15 K, 100 kPa, x1 = 0.008007	–	0.8031
313.15 K, 100 kPa, x1 = 0.009969	–	0.8366
313.15 K, 100 kPa, x1 = 0.01406	–	0.9075
313.15 K, 100 kPa, x1 = 0.0162	–	0.9429
313.15 K, 101 kPa, x1 = 0.003	0.97	–
313.15 K, 101 kPa, x1 = 0.008	2.5	–
313.15 K, 101 kPa, x1 = 0.013	3.4	–
313.15 K, 101 kPa, x1 = 0.019	3.9	–
313.15 K, 101 kPa, x1 = 0.151	4.7	–
313.15 K, 101 kPa, x1 = 0.642	1.4	–
318.15 K, 100 kPa, x1 = 0.0005131	–	0.6014
318.15 K, 100 kPa, x1 = 0.0008362	–	0.6088
318.15 K, 100 kPa, x1 = 0.001227	–	0.6154
318.15 K, 100 kPa, x1 = 0.002025	–	0.6285
318.15 K, 100 kPa, x1 = 0.002516	–	0.6341
318.15 K, 100 kPa, x1 = 0.003482	–	0.6498
318.15 K, 100 kPa, x1 = 0.00456	–	0.6693
318.15 K, 100 kPa, x1 = 0.006613	–	0.6989
318.15 K, 100 kPa, x1 = 0.008007	–	0.7189
318.15 K, 100 kPa, x1 = 0.009969	–	0.7489
318.15 K, 100 kPa, x1 = 0.01406	–	0.8092
318.15 K, 100 kPa, x1 = 0.0162	–	0.8249
323.15 K, 100 kPa, x1 = 0.0005131	–	0.5543
323.15 K, 100 kPa, x1 = 0.0008362	–	0.5575
323.15 K, 100 kPa, x1 = 0.001227	–	0.5629
323.15 K, 100 kPa, x1 = 0.002025	–	0.5726
323.15 K, 100 kPa, x1 = 0.002516	–	0.5798
323.15 K, 100 kPa, x1 = 0.003482	–	0.592
323.15 K, 100 kPa, x1 = 0.00456	–	0.6071
323.15 K, 100 kPa, x1 = 0.006613	–	0.6309
323.15 K, 100 kPa, x1 = 0.008007	–	0.6496
323.15 K, 100 kPa, x1 = 0.009969	–	0.672
323.15 K, 100 kPa, x1 = 0.01406	–	0.7192
323.15 K, 100 kPa, x1 = 0.0162	–	0.7349
323.15 K, 101 kPa, x2 = 0.427	–	14.57
328.15 K, 100 kPa, x1 = 0.0005131	–	0.5096
328.15 K, 100 kPa, x1 = 0.0008362	–	0.5125
328.15 K, 100 kPa, x1 = 0.001227	–	0.5161
328.15 K, 100 kPa, x1 = 0.002025	–	0.5251
328.15 K, 100 kPa, x1 = 0.002516	–	0.5307
328.15 K, 100 kPa, x1 = 0.003482	–	0.5404
328.15 K, 100 kPa, x1 = 0.00456	–	0.5521
328.15 K, 100 kPa, x1 = 0.006613	–	0.5713
343.15 K, 101 kPa, x2 = 0.0023	–	19.63
343.15 K, 101 kPa, x2 = 0.1966	–	14.47
343.15 K, 101 kPa, x2 = 0.427	–	8.918

CCOS(=O)(=O)[O-].CC[n+]1ccn(C)c1 + CS(C)=O
101 kPa, x1 = 0.3333
Conditions	viscosity [mPa·s]
288.15 K	3.92
293.15 K	3.53
313.15 K	2.26
348.15 K	1.27

CCCC[N+](CCCC)(CCCC)CCCC.O=S(=O)([O-])O + O
viscosity [mPa·s], 101 kPa
Conditions	x1 = 9.009e-05	x1 = 0.0001802	x1 = 0.0002702	x1 = 0.0003603
298.15 K	0.894	0.896	0.899	0.901
308.15 K	0.723	0.726	0.728	0.73
318.15 K	0.602	0.603	0.605	0.608

From the CheMixHub ionic liquid set
